Experimental data as given in PubChem BioAssay AID248 (DTP/NCI, 2004).
“And” between values parts separate entries of the source, which are not always exact repeats. Equal entries are not always repeated. Inconclusive results and toxic doses are left out. Cut-off read from the data, not from the text of the source: active = T/C of 150% or more; inactive = T/C below 125%.

Test system: L1210 leukemia ip in BDF1 mice, survival T/C
Assay: NCI In Vivo Anticancer Drug Screen. Data for tumor model L1210 Leukemia (intraperitoneal) in B6D2F1 (BDF1) mice
Conditions: endpoint: mean survival time, higher = longer survival
Outline: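 Each compound was tested against a transplantable tumor grown in mice. The endpoint was survival, with treated animals benchmarked against vehicle controls as a simple ratio.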

[1] = dose: 100.0 mg/kg/injection, schedule: Q01DX009 (ip), vehicle: Klucel (hydroxypropylcellulose) (HPC)
[2] = dose: 200.0 mg/kg/injection, schedule: Q01DX009 (ip), vehicle: Klucel (hydroxypropylcellulose) (HPC)
[3] = dose: 25.0 mg/kg/injection, schedule: Q01DX009 (ip), vehicle: saline
[4] = dose: 50.0 mg/kg/injection, schedule: Q01DX009 (ip), vehicle: saline

Measured: T/C

C[C@H]1C[C@@H]2[C@H]([C@@H](O)C[C@@]3(C)[C@H]2CC[C@]3(O)C(=O)CF)[C@@]2(C)C=CC(=O)C=C12
inactive: dose: 62.0 mg/kg/injection, schedule: Q01DX015 (sc), vehicle: steriod suspending solution 97 % of control | dose: 100.0 mg/kg/injection, schedule: Q04DX003 (sc), vehicle: Klucel (hydroxypropylcellulose) (HPC) 101 % of control | dose: 125.0 mg/kg/injection, schedule: Q01DX015 (sc), vehicle: steriod suspending solution 94 % of control | dose: 200.0 mg/kg/injection, schedule: Q04DX003 (sc), vehicle: Klucel (hydroxypropylcellulose) (HPC) 102 % of control | dose: 250.0 mg/kg/injection, schedule: Q01DX015 (sc), vehicle: steriod suspending solution 102 % of control | dose: 400.0 mg/kg/injection, schedule: Q04DX003 (sc), vehicle: Klucel (hydroxypropylcellulose) (HPC) 115 % of control | dose: 500.0 mg/kg/injection, schedule: Q01DX015 (sc), vehicle: steriod suspending solution 102 % of control

c1ccc([Si](c2ccccc2)(c2ccccc2)c2ccc(-c3ccc([Si](c4ccccc4)(c4ccccc4)c4ccccc4)cc3)cc2)cc1
inactive: dose: 200.0 mg/kg/injection, schedule: Q01DX001 (ip), vehicle: saline with Tween-80 90 % of control | dose: 400.0 mg/kg/injection, schedule: Q01DX001 (ip), vehicle: saline with Tween-80 88 % of control

O=C(NCCCl)NC1CCSc2ccccc21 (stereo not given)
inactive: dose: 100.0 mg/kg/injection, schedule: Q04DX003 (ip), vehicle: saline with Tween-80 101 % of control | dose: 200.0 mg/kg/injection, schedule: Q04DX003 (ip), vehicle: saline with Tween-80 95 % of control

O=C(Nc1ccc(Cl)cc1)SCCSC(=O)Nc1ccc(Cl)cc1
inactive: dose: 100.0 mg/kg/injection, schedule: Q04DX002 (ip), vehicle: other 97 % of control and 101 % of control | dose: 100.0 mg/kg/injection, schedule: Q04DX003 (ip), vehicle: other 98 % of control and 105 % of control | dose: 200.0 mg/kg/injection, schedule: Q04DX002 (ip), vehicle: other 93 % of control and 101 % of control | dose: 200.0 mg/kg/injection, schedule: Q04DX003 (ip), vehicle: other 94 % of control and 89 % of control | dose: 400.0 mg/kg/injection, schedule: Q04DX002 (ip), vehicle: other 95 % of control and 90 % of control | dose: 400.0 mg/kg/injection, schedule: Q04DX003 (ip), vehicle: other 95 % of control and 91 % of control

C[C@]12CC[C@@H]3c4ccc(O)c([N+](=O)[O-])c4CC[C@H]3[C@@H]1CCC2=O
inactive: [1] 97 % of control | [2] 92 % of control

NC1=NNC(N)=NN1
inactive: dose: 12.5 mg/kg/injection, schedule: Q01DX009 (ip), vehicle: saline 93 % of control | [3] 101 % of control | [4] 100 % of control and 107 % of control | dose: 100.0 mg/kg/injection, schedule: Q01DX009 (ip), vehicle: saline 92 % of control

O=C(O)COc1cc(OCC(=O)O)c([N+](=O)[O-])cc1[N+](=O)[O-]
inactive: dose: 100.0 mg/kg/injection, schedule: Q04DX003 (ip), vehicle: Klucel (hydroxypropylcellulose) (HPC) 102 % of control | dose: 200.0 mg/kg/injection, schedule: Q04DX003 (ip), vehicle: Klucel (hydroxypropylcellulose) (HPC) 102 % of control | dose: 400.0 mg/kg/injection, schedule: Q04DX003 (ip), vehicle: Klucel (hydroxypropylcellulose) (HPC) 91 % of control

ClC1C2CC3C(C2)C13 (stereo not given)
inactive: dose: 100.0 mg/kg/injection, schedule: Q01DX001 (ip), vehicle: carboxymethylcellulose (CMC) 95 % of control | dose: 200.0 mg/kg/injection, schedule: Q01DX001 (ip), vehicle: carboxymethylcellulose (CMC) 95 % of control | dose: 400.0 mg/kg/injection, schedule: Q01DX001 (ip), vehicle: carboxymethylcellulose (CMC) 95 % of control

CCCCNS(=O)(=O)c1ccc(Cl)c([N+](=O)[O-])c1
inactive: dose: 12.5 mg/kg/injection, schedule: Q04DX003 (ip), vehicle: Klucel (hydroxypropylcellulose) (HPC) 95 % of control | dose: 25.0 mg/kg/injection, schedule: Q04DX003 (ip), vehicle: Klucel (hydroxypropylcellulose) (HPC) 103 % of control | dose: 50.0 mg/kg/injection, schedule: Q04DX003 (ip), vehicle: Klucel (hydroxypropylcellulose) (HPC) 100 % of control | dose: 100.0 mg/kg/injection, schedule: Q04DX003 (ip), vehicle: gum acacia 103 % of control | dose: 200.0 mg/kg/injection, schedule: Q04DX003 (ip), vehicle: gum acacia 105 % of control

CC1OC(OC2C(O[C@H]3CC[C@@]4(C)C(=CC[C@H]5[C@@H]6C[C@@H]7O[C@]8(CC[C@H](C)CN8)[C@@H](C)[C@@H]7[C@@]6(C)CC[C@@H]54)C3)OC(CO)C(O)C2OC2OC(CO)C(O)C(O)C2O)C(O)C(O)C1O (stereo not given in full)
inactive: dose: 5.0 mg/kg/injection, schedule: Q01DX001 (ip), vehicle: other 97 % of control | dose: 10.0 mg/kg/injection, schedule: Q01DX001 (ip), vehicle: other 109 % of control | dose: 20.0 mg/kg/injection, schedule: Q01DX001 (ip), vehicle: other 106 % of control

C#CCn1cnc2c(Cl)ncnc21
inactive: dose: 100.0 mg/kg/injection, schedule: Q01DX001 (ip), vehicle: saline 117 % of control | dose: 200.0 mg/kg/injection, schedule: Q01DX001 (ip), vehicle: saline 97 % of control | dose: 400.0 mg/kg/injection, schedule: Q01DX001 (ip), vehicle: saline 103 % of control

OC(c1ccccc1)C1C2C=CC(C2)C1C(O)c1ccccc1 (stereo not given)
inactive: [1] 101 % of control | [2] 86 % of control | dose: 300.0 mg/kg/injection, schedule: Q01DX009 (ip), vehicle: Klucel (hydroxypropylcellulose) (HPC) 95 % of control

O=C(Nc1ccccc1F)Nc1cc([N+](=O)[O-])ccc1Cl
inactive: [1] 87 % of control | [2] 94 % of control | dose: 400.0 mg/kg/injection, schedule: Q01DX009 (ip), vehicle: Klucel (hydroxypropylcellulose) (HPC) 87 % of control

CC12CC3CC(C)(C1)CC(SCCN)(C3)C2
inactive: dose: 100.0 mg/kg/injection, schedule: Q04DX002 (ip), vehicle: saline 97 % of control | dose: 200.0 mg/kg/injection, schedule: Q04DX002 (ip), vehicle: saline 97 % of control

Cc1nc(N)[nH]c(=O)c1CCCc1ccccc1
inactive: dose: 100.0 mg/kg/injection, schedule: Q01DX009 (ip), vehicle: gum acacia 103 % of control | dose: 200.0 mg/kg/injection, schedule: Q01DX009 (ip), vehicle: gum acacia 94 % of control | dose: 400.0 mg/kg/injection, schedule: Q01DX009 (ip), vehicle: gum acacia 95 % of control

CNC(=O)Nc1ccc(Cl)cc1
inactive: dose: 100.0 mg/kg/injection, schedule: Q01DX001 (ip), vehicle: Klucel (hydroxypropylcellulose) (HPC) 107 % of control | dose: 200.0 mg/kg/injection, schedule: Q01DX001 (ip), vehicle: Klucel (hydroxypropylcellulose) (HPC) 105 % of control | dose: 400.0 mg/kg/injection, schedule: Q01DX001 (ip), vehicle: Klucel (hydroxypropylcellulose) (HPC) 107 % of control

O=CNO
inactive: dose: 50.0 mg/kg/injection, schedule: Q01DX001 (ip), vehicle: water 100 % of control | dose: 100.0 mg/kg/injection, schedule: Q01DX001 (ip), vehicle: water 110 % of control | dose: 200.0 mg/kg/injection, schedule: Q01DX001 (ip), vehicle: water 96 % of control | dose: 400.0 mg/kg/injection, schedule: Q01DX001 (ip), vehicle: water 107 % of control

NC(N)=NCCCC(NC(=O)OCc1ccccc1)C(=O)Nc1ccc2ccccc2c1 (stereo not given)
inactive: [1] 102 % of control | [2] 103 % of control

CC(C)=CCC/C(C)=C/COC(=O)C(CC=C(C)C)CCN1CCN(CC=C(C)C)CC1 (stereo not given)
inactive: dose: 100.0 mg/kg/injection, schedule: Q01DX009 (ip), vehicle: saline with Tween-80 98 % of control | dose: 100.0 mg/kg/injection, schedule: Q04DX002 (ip), vehicle: Klucel (hydroxypropylcellulose) (HPC) 88 % of control | dose: 200.0 mg/kg/injection, schedule: Q01DX009 (ip), vehicle: saline with Tween-80 92 % of control | dose: 200.0 mg/kg/injection, schedule: Q04DX002 (ip), vehicle: Klucel (hydroxypropylcellulose) (HPC) 92 % of control | dose: 400.0 mg/kg/injection, schedule: Q04DX002 (ip), vehicle: Klucel (hydroxypropylcellulose) (HPC) 98 % of control

COc1ccc2c(c1)CC[C@@H]1[C@@H]2CC[C@]2(C)/C(=N\O)CC[C@@H]12
inactive: dose: 100.0 mg/kg/injection, schedule: Q01DX001 (sc), vehicle: steriod suspending solution 100 % of control | dose: 100.0 mg/kg/injection, schedule: Q04DX003 (ip), vehicle: steriod suspending solution 102 % of control | dose: 200.0 mg/kg/injection, schedule: Q01DX001 (sc), vehicle: steriod suspending solution 100 % of control | dose: 200.0 mg/kg/injection, schedule: Q04DX003 (ip), vehicle: steriod suspending solution 100 % of control | dose: 400.0 mg/kg/injection, schedule: Q01DX001 (sc), vehicle: steriod suspending solution 97 % of control | dose: 400.0 mg/kg/injection, schedule: Q04DX003 (ip), vehicle: steriod suspending solution 97 % of control

[Co].[NH-]CC[N-]CCO.[NH-]CC[N-]CCO
inactive: [3] 100 % of control | [4] 102 % of control | dose: 50.0 mg/kg/injection, schedule: Q04DX003 (ip), vehicle: saline 108 % of control | dose: 100.0 mg/kg/injection, schedule: Q04DX003 (ip), vehicle: saline 105 % of control
